Reference: the supplement of paper PMC11208160

Assay: recombinant barcode read abundance after kanamycin selection (control-corrected) (log10(CPM+1)); higher = more efficient recombination; sequences stand for … in AGTGCAGAGAAAATCGGCCAGTTTTCTCTGCCTGCAGTCCGCATGCCGT…AGATTTATGCAGCGGACTGCCTTTCTCCCAAAGTGATAAACCGGACAGTATCATGGACCGGTTTTCCCGGTAATCCGTATTTGCAAGGTTGGTTTCACT; site = the 11-nt target
Procedure, shortened: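 Oligos holding a promoter, target, barcode and the J23119-driven first 104 bases of the bridge RNA were Gibson-cloned into a vector that supplied the other 73 bp plus a T7-inducible recombinase. This library was co-electroporated with a donor plasmid into E. coli. Two replicates went on chloramphenicol/ampicillin LB agar (control) and two on chloramphenicol/ampicillin/kanamycin with 0.1 mM IPTG. Recombination efficiency is read from averaged, control-corrected barcode counts per million at recombinant junctions, reported as log10(CPM+1).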
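Note: IS621 recombinase and bridge RNA in Escherichia coli cells.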

Sequence	recombinant barcode read abundance (log10)
TCCGAAGCTTGGGTTCTAACCTGTTGCCT (site GACGAAGCTAG)	0.444
TCCGAAGCTTGGGTTCTAACCTGTTGCCT (site TCCGAAGCTAG)	0.487
TCCGACTCTTGGGTTCTAACCTGTTGCCG (site TCCGACTCTCG)	1.55
TCCGACTCTTGGGTTCTAACCTGTTGCCG (site TCCTACTCTCG)	0.122
TCCGAGACTTGGGTTCTAACCTGTTGCCA (site TCCGAGACTAG)	0.598
TCCGAGACTTGGGTTCTAACCTGTTGCCA (site TCCGAGACTCG)	0.208
TCCGAGACTTGGGTTCTAACCTGTTGCCA (site TCCGAGACTGG)	0.176
TCCGAGACTTGGGTTCTAACCTGTTGCCA (site TCCGAGACTTG)	1.34
TCCGAGACTTGGGTTCTAACCTGTTGCCC (site TCCGAGACTAG)	0.146
TCCGAGACTTGGGTTCTAACCTGTTGCCC (site TCCGAGACTCG)	0.338
TCCGAGACTTGGGTTCTAACCTGTTGCCC (site TCCGAGACTGG)	1.08
TCCGAGACTTGGGTTCTAACCTGTTGCCC (site TCCGAGACTTG)	0.0317
TCCGCGACTTGGGTTCTAACCTGTTGCCT (site TCAGCGACTAG)	0.0444
TCCGCGACTTGGGTTCTAACCTGTTGCCT (site TCCGCGACTAG)	0.159
TCCGCGACTTGGGTTCTAACCTGTTGCCT (site TCGGCGACTAG)	0.453
TCCGCGACTTGGGTTCTAACCTGTTGCCT (site TCTGCGACTAG)	0.17
TCCGCTGCTTGGGTTCTAACCTGTTGCCT (site TCCGCTACTAG)	0.151
TCCGCTGCTTGGGTTCTAACCTGTTGCCT (site TCCGCTCCTAG)	0.0574
TCCGCTGCTTGGGTTCTAACCTGTTGCCT (site TCCGCTGCTAG)	0.283
TCCGCTGCTTGGGTTCTAACCTGTTGCCT (site TCCGCTTCTAG)	0.00679
TCCGGTACTTGGGTTCTAACCTGTTGCAT (site TCCAGTACTAT)	0.369
TCCGGTACTTGGGTTCTAACCTGTTGCAT (site TCCCGTACTAT)	0.0823

Sequence	recombinant barcode read abundance (log10)
TCCGGTACTTGGGTTCTAACCTGTTGCAT (site TCCGGTACTAT)	0.849
TCCGGTACTTGGGTTCTAACCTGTTGCAT (site TCCTGTACTAT)	0.114
TCCGTCCCTTGGGTTCTAACCTGTTGCTG (site TCCGTACCTCG)	0.0427
TCCGTCCCTTGGGTTCTAACCTGTTGCTG (site TCCGTCCCTCA)	1.57
TCCGTGCCTTGGGTTCTAACCTGTTGCCT (site TCCGTGACTAG)	0.00917
TCCGTGCCTTGGGTTCTAACCTGTTGCCT (site TCCGTGCCTAG)	0.598
TCCGTGCCTTGGGTTCTAACCTGTTGCCT (site TCCGTGGCTAG)	0.304
TCCGTGCCTTGGGTTCTAACCTGTTGCCT (site TCCGTGTCTAG)	0.17
TCCGTTACTTGGGTTCTAACCTGTTGCCG (site CAGCAGCCTAA)	0.086
TCCGTTACTTGGGTTCTAACCTGTTGCCG (site TCCGTTACTCG)	0.336
TCCTCTCCTTGGGTTCTAACCTGTTGCTT (site TCCTCTCCTAA)	0.118
TCCTCTCCTTGGGTTCTAACCTGTTGCTT (site TGCCCTCCTAA)	0.0451
TCCTGGCCTTGGGTTCTAACCTGTTGCCT (site TCCAGGGCTAG)	0.209
TCCTGGCCTTGGGTTCTAACCTGTTGCCT (site TCCTGGCCTAG)	0.117
TCCTGTCCTTGGGTTCTAACCTGTTGCAT (site TCCTGTACTAG)	0.0187
TCCTGTCCTTGGGTTCTAACCTGTTGCAT (site TCCTGTCCTAT)	0.467
TCCTGTGCTTGGGTTCTAACCTGTTGCCT (site TCCTGTGCTAG)	0.254
TCCTGTGCTTGGGTTCTAACCTGTTGCCT (site TTCTATGCTAG)	0.00897
TCCTTCTCTTGGGTTCTAACCTGTTGCCT (site GAGGGGACTCT)	0.103
TCCTTCTCTTGGGTTCTAACCTGTTGCCT (site TCCTTCTCTAG)	0.601
TCGAACCCTTGGGTTCTAACCTGTTGCCT (site TCGAAACCTAG)	0.36
TCGAACCCTTGGGTTCTAACCTGTTGCCT (site TCGAACCCTAG)	0.639

Sequence	recombinant barcode read abundance (log10)
TCGAACCCTTGGGTTCTAACCTGTTGCCT (site TCGAAGCCTAG)	0.115
TCGAACCCTTGGGTTCTAACCTGTTGCCT (site TCGAATCCTAG)	0.151
TCGAACGCTTGGGTTCTAACCTGTTGCTT (site CACGGGACTCT)	0.115
TCGAACGCTTGGGTTCTAACCTGTTGCTT (site TCGAACGCTAA)	0.135
TCGACCACTTGGGTTCTAACCTGTTGCCT (site TATACCACTAG)	0.0386
TCGACCACTTGGGTTCTAACCTGTTGCCT (site TCGACCACTAG)	0.115
TCGAGGCCTTGGGTTCTAACCTGTTGCGG (site TAGAGCCCTCC)	0.724
TCGAGGCCTTGGGTTCTAACCTGTTGCGG (site TCGAGGCCTCC)	1.34
TCGAGTCCTTGGGTTCTAACCTGTTGCCA (site TCGAGTCCTTG)	0.084
TCGAGTCCTTGGGTTCTAACCTGTTGCCA (site TGGTGTCCTTG)	0
TCGATCACTTGGGTTCTAACCTGTTGCCT (site TCGATCACTAG)	0.738
TCGATCACTTGGGTTCTAACCTGTTGCCT (site TCGATTACTAG)	0.0188
TCGATCCCTTGGGTTCTAACCTGTTGCGT (site CTTTGAACTTA)	0.315
TCGATCCCTTGGGTTCTAACCTGTTGCGT (site TCGATCCCTAC)	1.95
TCGCACACTTGGGTTCTAACCTGTTGCTG (site TAGCACACTCG)	0.0637
TCGCACACTTGGGTTCTAACCTGTTGCTG (site TCGCACACTCA)	0.548
TCGCGGACTTGGGTTCTAACCTGTTGCCT (site TCACGGACTAG)	0.464
TCGCGGACTTGGGTTCTAACCTGTTGCCT (site TCCCGGACTAG)	0.243
TCGCGGACTTGGGTTCTAACCTGTTGCCT (site TCGCGGACTAG)	0.168
TCGCGGACTTGGGTTCTAACCTGTTGCCT (site TCTCGGACTAG)	0.0887
TCGGAGTCTTGGGTTCTAACCTGTTGCAT (site TCGGAGTCTAA)	0.5
TCGGAGTCTTGGGTTCTAACCTGTTGCAT (site TCGGAGTCTAC)	1.03
